Patent US12016831B2, “Polidocanol for use as immunomodulating agent” (priority 2018, dated 2024)
“Also recorded” adds a separate entry of the source.

Tests used:
Format in all cases: in vivo, human
[1] = tested on: healthy volunteer subjects; experiment: Serum immunoglobulin and light chain levels after treatment
Experimental: (§1) The recruited patients had already been subjected to one or more polidocanol treatments, but had undergone a wash-out period of at least 4 months.
Levels of IgM, IgG, IgA and of light chains kappa/lambda, kappa and lambda were also measured.
(§2) Determinations a)-d) were carried out with Multiple Immunomagnetic Assay (Bio-Plex, Bio-Rad). Ig determinations were carried out with commercially available kits.

[2] = tested on: healthy volunteer subjects; experiment: Serum measurement of cytokines, chemokines and growth factors (Bio-Plex) after treatment
Experimental: as §1
Blood was then drawn at about 30′-1 hour (T1h), 1 day (T1), 7 days (T7) and 30 days (T30) after treatment, measuring the following serum parameters: • a) “Pro-inflammatory” cytokines: IL-1β, IL-6, IL-7, IL-12 (p70), IL-17, IFN-γ, TNF-α; • b) “Anti-inflammatory” cytokines: IL-1ra, IL-4, IL-5, IL-9, IL-13; • c) Chemokines: IL-8/CXCL8, IP-10/CXCL10, MIP-1α/CCL3, MIP-1β, RANTES/CCL5, Eotaxin/CCL11; • d) Growth factors: b-FGF, PDGF-bb, VEGF, G-CSF.
In a limited number of patients measurements 30 minutes and 3 hours after the treatment were carried out in order to identify short-term responses and assess possible acute inflammation indicators.
as §2
The determinations carried out were statistically analysed with the Friedman test and Dunns Multiple Comparison test. The most significant results are depicted in FIG. 1.

[3] = tested on: patients with autoimmune diseases (psoriasis, rheumatoid arthritis, systemic scleroderma); experiment: Cytokine and CRP levels in patients with autoimmune diseases after single administration; conditions: for Interleukin 1 beta level: T0 = 1; for Interleukin 13 level: T0 = 4; for Interleukin 6 level: T0 = 4.6; for Interleukin 7 level: T0 = 7; for CRP level: T0 = 32; for Interleukin 12 level / Interleukin 17 (25) level: T0 = 40; for Interleukin 9 level: T0 = 50; for TNF alpha level: T0 = 60
Experimental: A similar approach was used in a limited group of patients with autoimmune diseases. 10 patients (5 with psoriasis, 3 with rheumatoid arthritis, 2 with systemic scleroderma) were administered once the composition of the invention and a sample of blood was taken at T1 (8 days), T2 (30 days) and T3 (60 days). Cytokine and CRP (C-Reactive Protein, an index of inflammation) levels were measured by SCREEN CRP TEST and compared to those at time 0 (before the treatment).

[4] = tested on: patients with C2 CEAP Class and bearing lower limbs varices; experiment: Venous refilling time measurement via photoplethysmography (FPG); conditions: for venous refilling time (VRT): Diluted Polidocanol Group
Description: The results were confirmed by photoplethysmography in a limited number of patients (n=20) wherein the measurement of venous refilling registered and examined, compared to the beginning of the treatment (after at least 4 sessions), has evidenced an increase of the peripheral venous refilling time in 17 out of 20 cases, indicating a plausible increase of venous resistance, i.e. a reduction of the peripheral reticulo-capillary bed or anyway of the superficial venous system. • 9. Improvement of the so-called “cellulitis”. The results were as follows:
40 patients with C2 CEAP Class and bearing lower limbs varices were examined via photoplethysmography exam with a Photoplethysmograph with Light Reflection Rheography/1-Channel (Vasoquant 1000 D-Ppg), they were divided into two homogeneous groups wherein the venous refilling time was measured before and after the hemodynamic therapy.
In the Diluted Polidocanol Group the hemodynamic therapy was followed after 30 days by sclerosing treatment with diluted polidocanol, prepared as described in example 1. In the Basal Group, after hemodynamic therapy no further treatment was carried out.
In the Basal Group of 20 patients, measurements of the refilling time of the superficial veins (SV) via photoplethysmography (FPG) exam were carried out at time zero, at time 1 (1 month) after hemodynamic (surgical) therapy on the varices, and at time 6 (6 months) without any further treatment.
In the Diluted Polidocanol Group of 20 patients, measurements of the refilling time of the SV via FPG were carried out at time zero, at 1 month after hemodynamic (surgical) therapy on the varices, and at time 6 (6 months) after 3-4 sessions of sclerotherapy with the method of the invention.

[5] = tested on: individuals over 70 years old with a peripheral venous insufficiency; experiment: Serum CRP levels in individuals over 70 years old with osteoarticular problems; conditions: for CRP level: T2 (8 days)
Experimental: CRP levels in serum samples of individuals over 70 years old, chronically affected by osteoarticular problems, with or without pain, was also measured. CRP levels were measured within a group of 30 people, with a peripheral venous insufficiency. The subjects (23 females, 7 males) underwent sclerotherapy according to the invention. Then, CRP levels were measured at time 0 (beginning of treatment) at T1 (24 hours after treatment) and at T2 (8 days after treatment).

[6] = 7 days post treatment (T7) vs basal

Polidocanol [diluted polidocanol]
IgA level ([1]; T30 with respect to T7 and T0): decrease | IgG level ([1]; T30 with respect to T7 and T0): decrease | IgM level ([1]; T30 with respect to T7 and T0): decrease | light chains levels ([1]; T30 with respect to T7 and T0): decrease | immunogenic effect (IgM and IgG levels) ([1]; after 7 and 30 days, at the tested concentrations): absence of an immunogenic effect | tested Ig levels ([1]; between T0 and T7): none of the tested Ig fluctuates | IL-8 level ([2]; 7-30 days): increases | IL-1ra serum level [2, 6]: increase significantly; also recorded: significantly increased serum levels | IL-1β serum level [2, 6]: increase significantly; also recorded: significantly increased serum levels | IL-12 (p70) serum level [2, 6]: increase significantly; also recorded: significantly increased serum levels | MIP-1β/CCL4 serum level [2, 6]: modest variation (increase); also recorded: significantly increased serum levels | VEGF serum level [2, 6]: Increase; also recorded: significantly increased serum levels | IL-7 serum level ([2]; 30 days (T30) vs T0, p<0.01): decreases in a statistically significant way; also recorded: decreases significantly; also recorded: decrease | IL-12 serum level ([2]; 30 days (T30) vs T0, p<0.05): increases significantly; also recorded: increase | IL-1ra serum level ([2]; 30 days (T30), p<0.05): increase | IL-1β serum level ([2]; 30 days (T30), p<0.05): increase | VEGF serum level ([2]; 30 days (T30), p<0.05): higher levels; also recorded: increase | serum parameters, not-treated (T0) vs 1 day after treatment (T1) ([2]; T1, acute inflammatory reaction): None of the analysed parameters showed statistically significant differences | PDGFbb level ([2]; after treatment): increasing | b-FGF level ([2]; after treatment): increasing | most of the serum parameters (except for IP-10/CXCL10) compared with T0 ([2]; first hour after treatment (T30-45 min)): increased | IL-2, IL-10, IL-15, GM-CSF and MCP-1/CCL2 serum levels ([2]; in vivo): below the detection limits | MIP-1α level ([2]; with respect to basal levels, within the 1st and 7th days): modest variation (increase) | Interleukin 1 beta level ([3]; T1 (8 days) after single administration, average, 10 patients): 1.5 | Interleukin 13 level ([3]; T1 (8 days)): 5 | Interleukin 6 level ([3]; T1 (8 days)): 4.8 | Interleukin 7 level ([3]; T1 (8 days)): 9 | CRP level ([3]; T1 (8 days)): 30 | Interleukin 12 level ([3]; T1 (8 days)): 42 | Interleukin 17 (25) level ([3]; T1 (8 days)): 45 | Interleukin 9 level ([3]; T1 (8 days)): 80 | TNF alpha level ([3]; T1 (8 days)): 52 | Interleukin 1 beta level ([3]; T2 (30 days)): 1.7 | Interleukin 13 level ([3]; T2 (30 days)): 5 | Interleukin 6 level ([3]; T2 (30 days)): 3.7 | Interleukin 7 level ([3]; T2 (30 days)): 3 | CRP level ([3]; T2 (30 days)): 24 | Interleukin 12 level ([3]; T2 (30 days)): 36 | Interleukin 17 (25) level ([3]; T2 (30 days)): 32 | Interleukin 9 level ([3]; T2 (30 days)): 100 | TNF alpha level ([3]; T2 (30 days)): 42 | Interleukin 1 beta level ([3]; T3 (60 days)): 1.2 | Interleukin 13 level ([3]; T3 (60 days)): 4 | Interleukin 6 level ([3]; T3 (60 days)): 3.2 | Interleukin 7 level ([3]; T3 (60 days)): 3 | CRP level ([3]; T3 (60 days)): 16 | Interleukin 12 level ([3]; T3 (60 days)): 32 | Interleukin 17 (25) level ([3]; T3 (60 days)): 28 | Interleukin 9 level ([3]; T3 (60 days)): 120 | TNF alpha level ([3]; T3 (60 days)): 48 | patients with an improved index according to FPG exam ([4]; 6 months, after 3-4 sessions, 18 out of 20): 90% | venous refilling time (VRT) ([4]; 1 month, basal 24.3±6.78, p<0.05): 35.3 ± 4.14 s | venous refilling time (VRT) ([4]; 6 months, after 3-4 sessions, p<0.05 vs 1 month): 37.6 ± 4.13 s | refilling time at T6, Diluted Polidocanol Group vs basal group ([4]; T6 (6 months), basal group 35, p<0.001 Chi-squared test): 38 s | cases with increase of the peripheral venous refilling time ([4]; n=20, after at least 4 sessions, compared to the beginning of the treatment): 17 out of 20 | CRP levels vs time 0 ([5]; T1 (24 hours after treatment), 30 people over 70): did not show any variation | individuals showing a notable reduction of CRP levels ([5]; T2 (8 days after treatment), 27 out of 30): 90% | CRP level ([5]; case with starting CRP level 15 mg/l): 10 mg/L | CRP level ([5]; case with starting CRP level 18 mg/l): 9 mg/L | CRP level ([5]; case with starting CRP level 27 mg/l): 16 mg/L
